In the oligonucleotide strings, read from the 5' end, every base follows the letter of its sugar. An asterisk marks phosphorothioate; unmarked linkages are phosphodiester. Other units and linkages are bracketed, terminal groups are in braces. A string of capitals states the bases alone. {NAG37} = tridentate N-acetyl-galactosamine targeting ligand, structure (NAG37)s; [invAb] = inverted abasic unit; m = 2'-O-methyl; f = 2'-fluoro
Legend:
ANGPTL3 gene [1] = experiment: Example 3: serum triglycerides in mice; type: in vivo
Protocol: (§1) To assess the in vivo activity of ANGPTL3 RNAi agents that are designed to target positions 921 and 922 on the ANGPTL3 gene, six- to eight-week-old female C57bl/6 mice were used. Pre-dose serum samples were taken at day −1 after a four hour fast. At day 1, each mouse was given a single subcutaneous administration of 200 μl containing either 1 mg/kg (mpk) of an ANGPTL3 RNAi agent in D5W (dextrose in 5% water), or control (D5W) with no RNAi agent, according to the dosing groups recited in Table 12.
Each of the RNAi agents included a modified sequence and an N-acetyl-galactosamine-containing targeting ligand conjugated to the 5′ terminal end of the sense strand. (See Tables 3, 4, and 5 for modified sequences and targeting ligand structures). The injections were performed between the skin and muscle (i.e. subcutaneous injections) into the loose skin over the neck and shoulder area. Three (3) mice in each group were tested (n=3). […] Mice were fasted for four hours prior to each collection. ANGPTL3 protein levels in serum were measured by ELISA assay (R&D Systems), according to the manufacturer's recommendations. Triglycerides, high-density lipoprotein (HDL), and total cholesterol in serum were measured on a Cobas® Integra 400 (Roche Diagnostics), according to the manufacturer's recommendations.
(§2) The ANGPTL3 protein levels, triglyceride levels, HDL levels, and total cholesterol levels for each animal were normalized. For normalization, the level of ANGPTL3 protein, triglyceride, HDL, and total cholesterol, respectively, for each animal at a time point, was divided by the pre-treatment level of expression in that animal (in this case at day −1) to determine the ratio of expression “normalized to pre-treatment.” Expression at a specific time point was then normalized to the D5W control group by dividing the “normalized to pre-treatment” ratio for an individual animal by the mean “normalized to pretreatment” ratio of all mice in the D5W control group.

ANGPTL3 gene [2] = experiment: Example 8: serum total cholesterol in cynomolgus monkeys; type: in vivo, cynomolgus macaque (Macaca fascicularis); settings: 3.0 mg/kg single SC injection day 1, cynos, n=2
Protocol: (§3) Additional ANGPTL3 RNAi agents were evaluated in cynomolgus monkeys. On day 1, cynomolgus macaque (Macaca fascicularis) primates (also referred to herein as “cynos”) were administered a single subcutaneous injection of 0.3 mL/kg (approximately 1-2 mL volume, depending on animal mass) containing 3.0 mg/kg of one of ANGPTL3 RNAi agent AD05577, AD05307, AD05488, AD05654, or AD05659, each formulated in saline.
(§4) Two (2) cynos in each group were tested (n=2). Blood samples were drawn and serum samples were analyzed on days −8 (pre-dose), 1 (pre-dose), 8, 15, 22, 29, and 36. Cynos were fasted overnight prior to each collection. ANGPTL3 protein levels in serum were measured by ELISA assay (R&D Systems), according to the manufacturer's recommendations. Triglycerides, total cholesterol, high-density lipoprotein (HDL), and low-density lipoprotein (LDL) in serum were measured on a Cobas® Integra 400 (Roche Diagnostics), according to the manufacturer's recommendations.
(§5) The ANGPTL3 protein levels, triglyceride levels, total cholesterol levels, HDL levels, and LDL levels for each animal were normalized. For normalization, the level of ANGPTL3 protein, triglyceride, HDL, and total cholesterol, respectively, for each animal at a time point, was divided by the average pre-treatment level of expression in that animal (in this case at days −8, and 1 (pre-dose)) to determine the ratio of expression “normalized to pre-treatment.”

ANGPTL3 gene [3] = experiment: Example 8: serum HDL in cynomolgus monkeys; type: in vivo, cynomolgus macaque (Macaca fascicularis); settings: 3.0 mg/kg single SC injection day 1, cynos, n=2
Protocol: as §3, §4, §5

ANGPTL3 gene [4] = experiment: Example 8: serum LDL in cynomolgus monkeys; type: in vivo, cynomolgus macaque (Macaca fascicularis); settings: 3.0 mg/kg single SC injection day 1, cynos, n=2
Protocol: as §3, §4, §5

ANGPTL3 gene [5] = experiment: Example 4: serum triglycerides in mice; type: in vivo
Protocol: as §1, with “target additional” for “target”, “positions” for “positions 921 and 922”, “(mpk) or 0.5 mg/kg (mpk)” for “(mpk)”, “17.” for “12.”
(§6) Each of the RNAi agents included a modified sequence and an N-acetyl-galactosamine-containing targeting ligand conjugated to the 5′ terminal end of the sense strand. (See Tables 3, 4, and 5 for modified sequences and targeting ligand structures). The injections were performed between the skin and muscle (i.e. subcutaneous injections) into the loose skin over the neck and shoulder area. Three (3) mice in each group were tested (n=3). Serum was collected on days 8, 15, 22, 29, and day 43 (Groups 1-3, 9, and 11-13 only). Mice were fasted for four hours prior to each collection. ANGPTL3 protein levels in serum were measured by ELISA assay (R&D Systems), according to the manufacturer's recommendations. Triglycerides, high-density lipoprotein (HDL), and total cholesterol in serum were measured on a Cobas® Integra 400 (Roche Diagnostics), according to the manufacturer's recommendations.
as §2

ANGPTL3 gene [6] = experiment: Example 4: serum total cholesterol in mice; type: in vivo, C57bl/6 mice
Protocol: as §1, with “target additional” for “target”, “positions” for “positions 921 and 922”, “(mpk) or 0.5 mg/kg (mpk)” for “(mpk)”, “17.” for “12.”
as §6, §2

[7] = Day 8, 1.0 mg/kg single subcutaneous dose on day 1, female C57bl/6 mice
[8] = Day 15, 1.0 mg/kg single subcutaneous dose on day 1, female C57bl/6 mice
[9] = Day 22, 1.0 mg/kg single subcutaneous dose on day 1, female C57bl/6 mice
[10] = Day 29, 1.0 mg/kg single subcutaneous dose on day 1, female C57bl/6 mice
[11] = Day 43, 1.0 mg/kg single subcutaneous dose on day 1, female C57bl/6 mice
[12] = Day 8, 1.0 mg/kg single SC injection on day 1, n=3
[13] = Day 15, 1.0 mg/kg single SC injection on day 1, n=3
[14] = Day 22, 1.0 mg/kg single SC injection on day 1, n=3
[15] = Day 29, 1.0 mg/kg single SC injection on day 1, n=3
[16] = Day 43, 1.0 mg/kg single SC injection on day 1, n=3

Substance | Avg TG (Average Triglycerides Normalized to Pre-Treatment and Control) (ANGPTL3 gene [1]; [7]) | Avg TG (Average Triglycerides Normalized to Pre-Treatment and Control) (ANGPTL3 gene [1]; [8]) | Avg TG (Average Triglycerides Normalized to Pre-Treatment and Control) (ANGPTL3 gene [1]; [9]) | Avg TG (Average Triglycerides Normalized to Pre-Treatment and Control) (ANGPTL3 gene [1]; [10]) | Avg Total Chol normalized to pre-treatment (ANGPTL3 gene [2]; Day 8) | Avg Total Chol normalized to pre-treatment (ANGPTL3 gene [2]; Day 15) | Avg Total Chol normalized to pre-treatment (ANGPTL3 gene [2]; Day 22) | Avg Total Chol normalized to pre-treatment (ANGPTL3 gene [2]; Day 29) | Avg Total Chol normalized to pre-treatment (ANGPTL3 gene [2]; Day 36) | Average HDL Normalized to Pre-Treatment (ANGPTL3 gene [3]; Day 8) | Avg TG (Average Triglycerides Normalized to Pre-Treatment and Control) (ANGPTL3 gene [5]; [7]) | Avg TG (Average Triglycerides Normalized to Pre-Treatment and Control) (ANGPTL3 gene [5]; [8]) | Avg TG (Average Triglycerides Normalized to Pre-Treatment and Control) (ANGPTL3 gene [5]; [9]) | Avg TG (Average Triglycerides Normalized to Pre-Treatment and Control) (ANGPTL3 gene [5]; [10]) | Avg TG (Average Triglycerides Normalized to Pre-Treatment and Control) (ANGPTL3 gene [5]; [11]) | Avg Total Chol, normalized to pre-treatment and control (ANGPTL3 gene [6]; [12]) | Avg Total Chol, normalized to pre-treatment and control (ANGPTL3 gene [6]; [13]) | Avg Total Chol, normalized to pre-treatment and control (ANGPTL3 gene [6]; [14]) | Avg Total Chol, normalized to pre-treatment and control (ANGPTL3 gene [6]; [15]) | Avg Total Chol, normalized to pre-treatment and control (ANGPTL3 gene [6]; [16]) | also measured
AD05307: RNAi agent duplex: antisense AM07001-AS, sense AM07000-SS (chain 1 mU*fU*mU*fGmAfAmUfUmAfAmUfGmUfCmCfAmUfGmGmG*mC; chain 2 {NAG37}*[invAb]*mGmCmCmCmAmUmGmGfAfCfAmUmUmAmAmUmUmCmAmAmA*[invAb]) | 0.786 | 0.692 | 0.903 | 0.852 | 0.994 | 1.006 | 0.905 | 0.954 | 0.909 | 1.007 | – | – | – | – | – | – | – | – | – | – | Average HDL Normalized to Pre-Treatment (ANGPTL3 gene [3]; Day 15): 0.946; Average HDL Normalized to Pre-Treatment (ANGPTL3 gene [3]; Day 22): 0.879; Average HDL Normalized to Pre-Treatment (ANGPTL3 gene [3]; Day 29): 0.998; Average HDL Normalized to Pre-Treatment (ANGPTL3 gene [3]; Day 36): 0.863; Average LDL Normalized to Pre-Treatment (ANGPTL3 gene [4]; Day 8): 1.008; Average LDL Normalized to Pre-Treatment (ANGPTL3 gene [4]; Day 15): 1.102; Average LDL Normalized to Pre-Treatment (ANGPTL3 gene [4]; Day 22): 0.971; Average LDL Normalized to Pre-Treatment (ANGPTL3 gene [4]; Day 29): 1.106; Average LDL Normalized to Pre-Treatment (ANGPTL3 gene [4]; Day 36): 0.894
AD05308: RNAi agent duplex: antisense AM07003-AS, sense AM07002-SS (chain 1 mU*fG*mU*fUmGfAmAfUmUfAmAfUmGfUmCfCmAfUmGfG*mA; chain 2 {NAG37}*[invAb]*mUmCmCmAmUmGmGmAfCfAfUmUmAmAmUmUmCmAmAmCmA*[invAb]) | 0.952 | 0.749 | 0.854 | 1.009 | – | – | – | – | – | – | 0.749 | 1.164 | 1.152 | 1.021 | 0.994 | 0.868 | 0.793 | 0.770 | 0.819 | 1.073 | Avg TG (Average Triglycerides Normalized to Pre-Treatment and Control) (ANGPTL3 gene [5]; Day 8, 0.5 mg/kg single subcutaneous dose on day 1, female C57bl/6 mice): 1.330; Avg TG (Average Triglycerides Normalized to Pre-Treatment and Control) (ANGPTL3 gene [5]; Day 15, 0.5 mg/kg single subcutaneous dose on day 1, female C57bl/6 mice): 1.598; Avg TG (Average Triglycerides Normalized to Pre-Treatment and Control) (ANGPTL3 gene [5]; Day 22, 0.5 mg/kg single subcutaneous dose on day 1, female C57bl/6 mice): 1.732; Avg TG (Average Triglycerides Normalized to Pre-Treatment and Control) (ANGPTL3 gene [5]; Day 29, 0.5 mg/kg single subcutaneous dose on day 1, female C57bl/6 mice): 1.446; Avg TG (Average Triglycerides Normalized to Pre-Treatment and Control) (ANGPTL3 gene [5]; Day 43, 0.5 mg/kg single subcutaneous dose on day 1, female C57bl/6 mice): 1.547; Avg Total Chol, normalized to pre-treatment and control (ANGPTL3 gene [6]; Day 8, 0.5 mg/kg single SC injection on day 1, n=3): 0.992; Avg Total Chol, normalized to pre-treatment and control (ANGPTL3 gene [6]; Day 15, 0.5 mg/kg single SC injection on day 1, n=3): 0.838; Avg Total Chol, normalized to pre-treatment and control (ANGPTL3 gene [6]; Day 22, 0.5 mg/kg single SC injection on day 1, n=3): 1.000; Avg Total Chol, normalized to pre-treatment and control (ANGPTL3 gene [6]; Day 29, 0.5 mg/kg single SC injection on day 1, n=3): 0.958; Avg Total Chol, normalized to pre-treatment and control (ANGPTL3 gene [6]; Day 43, 0.5 mg/kg single SC injection on day 1, n=3): 1.157
AD05418: RNAi agent duplex: antisense AM07159-AS, sense AM07158-SS (antisense mU*fU*mU*fGmAfAmUfUmAfAmUfGmUfCmCfAmUfGmGfG*mU; sense {NAG37}*[invAb]*mAmCmCmCmAmUmGmGfAfCfAmUmUmAmAmUmUmCmAmAmA*[invAb]) | 0.718 | 0.791 | 0.855 | 0.881 | – | – | – | – | – | – | 0.858 | 1.065 | 1.079 | 0.980 | 0.892 | 0.818 | 0.761 | 0.915 | 0.853 | 1.002 | –
AD05488: RNAi agent duplex: antisense AM07235-AS, sense AM07234-SS (antisense mU*fA*mC*fUmGfAmUfCmAfAmAfUmAfUmGfUmUfGmAfG*mC; sense {NAG37}*[invAb]*mGmCmUmCmAmAmCmAfUfAfUmUmUmGmAmUmCmAmGmUmA*[invAb]) | – | – | – | – | 0.840 | 0.779 | 0.743 | 0.674 | 0.722 | 0.832 | 0.624 | 0.795 | 0.837 | 0.721 | 0.901 | 0.827 | 0.667 | 0.759 | 0.683 | 0.837 | Average HDL Normalized to Pre-Treatment (ANGPTL3 gene [3]; Day 15): 0.695; Average HDL Normalized to Pre-Treatment (ANGPTL3 gene [3]; Day 22): 0.688; Average HDL Normalized to Pre-Treatment (ANGPTL3 gene [3]; Day 29): 0.657; Average HDL Normalized to Pre-Treatment (ANGPTL3 gene [3]; Day 36): 0.622; Average LDL Normalized to Pre-Treatment (ANGPTL3 gene [4]; Day 8): 0.934; Average LDL Normalized to Pre-Treatment (ANGPTL3 gene [4]; Day 15): 0.926; Average LDL Normalized to Pre-Treatment (ANGPTL3 gene [4]; Day 22): 0.891; Average LDL Normalized to Pre-Treatment (ANGPTL3 gene [4]; Day 29): 0.872; Average LDL Normalized to Pre-Treatment (ANGPTL3 gene [4]; Day 36): 0.805

Reference: patent publication US12729377B2, “RNAi agents and compositions for inhibiting expression of angiopoietin-like 3 (ANGPTL3), and methods of use” (Arrowhead Pharmaceuticals, Inc., priority 2017, dated 2026)
